Results from patent publication US20200024278A1, “COMPOSITION COMPRISING ANTIBIOTIC COMPOUND AND AN HETEROCYCLIC COMPOUND AND THEIR USE IN PREVENTING OR TREATING BACTERIAL INFECTIONS” (MUTABILIS, priority 2016, published 2020).
Like-named read-outs stand apart in the source and are kept apart here.

Assays:
PAE 27853 = experiment: MIC, broth microdilution (CLSI), substance alone or ATB combined with compound at 4 or 8 μg/mL; format: cell-based, P. aeruginosa; details: Pseudomonas aeruginosa, substance alone
In short: (§1)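 Growth inhibition endpoint, read visually after 16-20 h at 35° C in ambient air. Cation-adjusted Mueller-Hinton broth, inoculum 5·10^5 CFU/mL, CLSI M7-A7 protocol.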

KPN UFR68 = experiment: Fractional Inhibitory Concentration Index, checkerboard assay; format: cell-based, K. pneumoniae
In short: (§2)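 Two-agent checkerboards of 2-fold dilutions in ca-MHB were inoculated at 5.10^5 CFU/mL and incubated 18 h at 35 °C in air, in duplicate; fosfomycin wells also held 25 μg/ml glucose-6-phosphate. FICI calculated as the sum of combination/alone MIC ratios for each drug.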

ABA UFR156 = experiment: MIC, broth microdilution (CLSI), substance alone or ATB combined with compound at 4 or 8 μg/mL; format: cell-based, A. baumannii; details: substance alone
In short: as §1

ABA UFR155 = experiment: as above; format: cell-based, A. baumannii; details: substance alone
In short: as §1

ABA UFR159 = experiment: as above; format: cell-based, A. baumannii; details: substance alone
In short: as §1

ABA UFR158 = experiment: as above; format: cell-based, A. baumannii; details: substance alone
In short: as §1

ABA 19606 = experiment: as above; format: cell-based, A. baumannii; details: substance alone
In short: as §1

ABA UFR152 = experiment: as above; format: cell-based, A. baumannii; details: substance alone
In short: as §1

ABA UFR161 = experiment: as above; format: cell-based, A. baumannii; details: substance alone
In short: as §1

ABA 107292 = experiment: as above; format: cell-based, A. baumannii; details: substance alone
In short: as §1

ABA UFR154 = experiment: as above; format: cell-based, A. baumannii; details: substance alone
In short: as §1

ABA UFR153 = experiment: as above; format: cell-based, A. baumannii; details: substance alone
In short: as §1

ABA UFR157 = experiment: as above; format: cell-based, A. baumannii; details: substance alone
In short: as §1

PAE UFR90 = experiment: Fractional Inhibitory Concentration Index, checkerboard assay; format: cell-based, P. aeruginosa
In short: as §2

PAE UFR48 = experiment: as above; format: cell-based, P. aeruginosa
In short: as §2

ECO 190317 = experiment: as above; format: cell-based, E. coli
In short: as §2

ECL P99 = experiment: as above; format: cell-based, E. cloacae
In short: as §2

[1] = Acinetobacter baumannii, read-out: MIC

Row | SMILES | FIC index min (KPN UFR68; compound +ATM) | FIC index min (KPN UFR68; compound +FEP) | FIC index min (KPN UFR68; compound +FOS) | FIC index min (KPN UFR68; compound +MEM) | FIC index min (KPN UFR68; compound +PIP) | FIC index min (PAE UFR90; compound +ATM) | FIC index min (PAE UFR90; compound +FEP) | FIC index min (PAE UFR90; compound +FOS) | FIC index min (PAE UFR90; compound +MEM) | FIC index min (PAE UFR90; compound +PIP) | FIC index min (PAE UFR48; compound +ATM) | FIC index min (PAE UFR48; compound +FEP) | FIC index min (PAE UFR48; compound +FOS) | FIC index min (PAE UFR48; compound +MEM) | FIC index min (PAE UFR48; compound +PIP) | FIC index min (ECO 190317; compound +ATM) | FIC index min (ECO 190317; compound +FEP) | FIC index min (ECO 190317; compound +FOS) | FIC index min (ECO 190317; compound +MEM) | FIC index min (ECO 190317; compound +PIP) | further results
1 | NCC[C@H](O)C(=O)N[C@@H]1C[C@H](N)[C@@H](O[C@H]2O[C@H](CN)[C@@H](O)[C@H](O)[C@H]2O)[C@H](O)[C@H]1O[C@H]1O[C@H](CO)[C@@H](O)[C@H](N)[C@H]1O [AN, Amikacin, reference compound] | – | – | – | – | – | – | – | – | – | – | – | – | – | – | – | – | – | – | – | – | MIC (PAE 27853): 2 µg/mL
2 | O=C(O)C(F)(F)F.O=C1N2C[C@H](c3scnc3[C@H]2c2ncc[nH]2)N1OS(=O)(=O)[O-].[Na+] (relative stereo) [Example 6, sodium and 2,2,2-trifluoroacetate [trans-7-(1H-imidazol-3-ium--2-yl)-9-oxo-3-thia-5,8,10-triaza-tricyclo[6.2.1.0^2,6]undeca-2(6),4-dien-10-yl]sulfate] | 1.0 | 1.0 | 0.28 | 0.50 | ≤0.5 | – | – | – | – | – | – | – | – | – | – | – | – | – | – | – | MIC (ABA UFR156): 16 µg/mL; MIC (ABA UFR155): 16 µg/mL; MIC (ABA UFR159): >32 µg/mL; MIC (ABA UFR158): 16 µg/mL; MIC (ABA 19606): 16 µg/mL; MIC (ABA UFR152): 32 µg/mL; MIC (ABA UFR161): 32 µg/mL; MIC (ABA 107292): >32 µg/mL; MIC (ABA UFR154): 32 µg/mL; MIC (ABA UFR153): 16 µg/mL; MIC (ABA UFR157): 8 µg/mL
3 | NCCON=C1C[C@@H](C(N)=O)N2C[C@@H]1N(OS(=O)(=O)[O-])C2=O.[Na+] [Example 2, sodium and 2,2,2-trifluoroacetate [(2S,5S)-4-(2-ammonium-ethoxyimino)-2-carbamoyl-7-oxo-1,6-diazabicyclo[3.2.1]octan-6-yl] sulfate] | 0.05 | ≤0.0098 | 0.25 | 0.03 | 0.09 | ≤0.22 | ≤0.28 | ≤0.63 | ≤0.38 | ≤0.15 | 0.09 | 0.63 | 0.50 | 0.8 | 0.31 | 0.08 | ≤0.06 | 0.56 | 0.50 | ≤0.25 | FIC index min (ECL P99; compound +ATM): 0.50; FIC index min (ECL P99; compound +FEP): 0.14; FIC index min (ECL P99; compound +FOS): ≤0.14; FIC index min (ECL P99; compound +MEM): 0.50; FIC index min (ECL P99; compound +PIP): 0.14; MIC (ABA UFR156; [1]): > 32 µg/mL; MIC (ABA UFR155; [1]): > 32 µg/mL; MIC (ABA UFR159; [1]): > 32 µg/mL; MIC (ABA UFR158; [1]): > 32 µg/mL; MIC (ABA 19606; [1]): 16 µg/mL; MIC (ABA UFR152; [1]): > 32 µg/mL; MIC (ABA UFR161; [1]): > 32 µg/mL; MIC (ABA 107292; [1]): > 32 µg/mL; MIC (ABA UFR154; [1]): > 32 µg/mL; MIC (ABA UFR153; [1]): > 32 µg/mL; MIC (ABA UFR157; [1]): > 32 µg/mL
4 | NC[C@H]1C=C(c2cnco2)[C@@H]2CN1C(=O)N2OS(=O)(=O)[O-].O=C(O)C(F)(F)F.[Na+] (relative stereo) [Example 1, sodium and 2,2,2-trifluoroacetate [trans-2-(azaniumylmethyl)-4-oxazol-5-yl-7-oxo-1,6-diazabicyclo[3.2.1]oct-3-en-6-yl] sulfate] | ≤0.023 | ≤0.0088 | ≤0.126 | ≤0.0098 | ≤0.012 | 0.54 | 0.50 | 1.0 | 0.75 | 0.88 | 0.25 | 0.53 | 0.62 | 0.27 | 0.27 | 0.51 | 0.49 | 0.37 | 0.63 | ≤0.38 | FIC index min (ECL P99; compound +ATM): 0.50; FIC index min (ECL P99; compound +FEP): 0.47; FIC index min (ECL P99; compound +FOS): ≤0.3125; FIC index min (ECL P99; compound +MEM): 0.56; FIC index min (ECL P99; compound +PIP): 0.50; MIC (PAE 27853): 1 µg/mL; MIC (ABA UFR156; [1]): > 32 µg/mL; MIC (ABA UFR155; [1]): > 32 µg/mL; MIC (ABA UFR159; [1]): > 32 µg/mL; MIC (ABA UFR158; [1]): > 32 µg/mL; MIC (ABA 19606; [1]): > 32 µg/mL; MIC (ABA UFR152; [1]): > 32 µg/mL; MIC (ABA UFR161; [1]): > 32 µg/mL; MIC (ABA 107292; [1]): > 32 µg/mL; MIC (ABA UFR154; [1]): > 32 µg/mL; MIC (ABA UFR153; [1]): > 32 µg/mL; MIC (ABA UFR157; [1]): > 32 µg/mL
5 | O=C1N2CC(c3ncco3)=C[C@H](C2)N1OS(=O)(=O)[O-].[Na+] [Example 9, sodium [(5R)-3-(oxazol-2-yl)-7-oxo-1,6-diazabicyclo[3.2.1]oct-3-en-6-yl] sulfate] | ≤0.27 | ≤0.05 | 0.50 | 0.15 | ≤0.27 | ≤0.30 | ≤0.27 | ≤0.52 | ≤0.53 | ≤0.23 | 0.14 | 0.50 | 1.0 | 0.8 | 0.32 | 0.20 | ≤0.07 | 0.69 | 0.58 | ≤0.21 | FIC index min (ECL P99; compound +ATM): 0.53; FIC index min (ECL P99; compound +FEP): 0.23; FIC index min (ECL P99; compound +FOS): ≤0.19; FIC index min (ECL P99; compound +MEM): 0.88; FIC index min (ECL P99; compound +PIP): 0.20; MIC (ABA UFR156; [1]): > 32 µg/mL; MIC (ABA UFR155; [1]): > 32 µg/mL; MIC (ABA UFR159; [1]): > 32 µg/mL; MIC (ABA UFR158; [1]): > 32 µg/mL; MIC (ABA 19606; [1]): > 32 µg/mL; MIC (ABA UFR152; [1]): > 32 µg/mL; MIC (ABA UFR161; [1]): > 32 µg/mL; MIC (ABA 107292; [1]): > 32 µg/mL; MIC (ABA UFR154; [1]): > 32 µg/mL; MIC (ABA UFR153; [1]): > 32 µg/mL; MIC (ABA UFR157; [1]): > 32 µg/mL
